Structures are written as SMILES.

Usually inhibition stands for the relative decrease from the control value, in per cent.

The target in one test is NA-uptake (Rattus norvegicus, UniProt Q63380). Briefly: biochemical. The settings on record: for inhibition at 10 µM: read-out: NA-uptake [10 μM], % inhibition.
The next test has as its target T1, 5HT-uptake (Rattus norvegicus, UniProt P31652).
T1 construct: synaptosomes were freshly isolated from areas of rats' brains
Briefly: biochemical. The following applies: for inhibition at 10 µM: read-out: 5HT-uptake [10 μM], % inhibition.

T1 sequence (P31652 whole entry): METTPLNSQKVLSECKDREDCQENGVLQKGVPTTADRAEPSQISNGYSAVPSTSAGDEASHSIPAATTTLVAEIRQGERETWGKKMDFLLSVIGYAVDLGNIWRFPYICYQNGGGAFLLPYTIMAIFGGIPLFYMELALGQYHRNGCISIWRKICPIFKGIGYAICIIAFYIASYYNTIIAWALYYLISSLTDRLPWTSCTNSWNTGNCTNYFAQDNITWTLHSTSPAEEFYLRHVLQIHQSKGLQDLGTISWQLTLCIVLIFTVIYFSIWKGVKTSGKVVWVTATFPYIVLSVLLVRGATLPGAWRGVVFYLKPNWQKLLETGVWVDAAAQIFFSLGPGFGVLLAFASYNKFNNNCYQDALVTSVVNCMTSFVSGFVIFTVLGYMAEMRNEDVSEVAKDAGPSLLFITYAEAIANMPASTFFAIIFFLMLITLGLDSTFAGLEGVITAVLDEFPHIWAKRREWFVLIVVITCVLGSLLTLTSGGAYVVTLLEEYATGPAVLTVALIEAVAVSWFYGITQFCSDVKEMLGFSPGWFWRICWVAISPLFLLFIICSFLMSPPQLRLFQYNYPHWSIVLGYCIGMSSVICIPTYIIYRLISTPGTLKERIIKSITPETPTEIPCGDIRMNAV
Sequence of NA-uptake (Q63380 1-617): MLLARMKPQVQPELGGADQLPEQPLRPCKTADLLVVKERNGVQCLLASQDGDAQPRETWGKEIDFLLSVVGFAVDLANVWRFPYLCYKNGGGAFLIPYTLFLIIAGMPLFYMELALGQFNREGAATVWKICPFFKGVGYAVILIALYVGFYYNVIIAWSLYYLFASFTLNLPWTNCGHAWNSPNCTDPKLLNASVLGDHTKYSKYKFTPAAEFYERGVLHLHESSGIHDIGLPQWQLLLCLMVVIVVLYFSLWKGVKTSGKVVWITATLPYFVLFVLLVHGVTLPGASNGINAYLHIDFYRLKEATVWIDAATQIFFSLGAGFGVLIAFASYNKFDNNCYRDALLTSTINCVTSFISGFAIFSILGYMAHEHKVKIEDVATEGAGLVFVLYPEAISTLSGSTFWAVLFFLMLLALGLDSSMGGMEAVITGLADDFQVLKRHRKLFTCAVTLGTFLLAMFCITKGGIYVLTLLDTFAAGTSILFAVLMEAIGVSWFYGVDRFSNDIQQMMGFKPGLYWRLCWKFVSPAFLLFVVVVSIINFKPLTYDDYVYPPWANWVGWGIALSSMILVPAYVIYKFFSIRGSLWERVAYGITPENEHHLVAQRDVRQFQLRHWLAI

With `CN(Cc1cccnc1)C(=O)CCC(=O)NC1CCC(Cc2ccc(Cl)cc2)(N(C)C)CC1` (stereo not shown) [Example 72, N-[4-(4-chloro-benzyl)-4-dimethylamino-cyclohexyl]-N′-methyl-N′-pyridin-3-ylmethyl-succinamide], the inhibition at 10 µM was 70% at NA-uptake and 95% at 5HT-uptake.
For the compound `Cc1cccc(CC2(N(C)C)CCC(NC(=O)CCC(=O)NC(C)c3ccc4ccccc4c3)CC2)c1` (stereo not shown) [Example 122, N-[4-dimethylamino-4-(3-methyl-benzyl)-cyclohexyl]-N′-(1-naphthalen-2-yl-ethyl)-succinamide], the inhibition at 10 µM at NA-uptake came to 102%; at 5HT-uptake it was 93%.
The matching figures for `Cc1ccc(CC2(N(C)C)CCC(NC(=O)CCC(=O)N3CC=CCC3)CC2)cc1` (stereo not shown) [Example 19, 4-(3,6-dihydro-2H-pyridin-1-yl)-N-[4-dimethylamino-4-(4-methyl-benzyl)-cyclohexyl]-4-oxo-butyramide]: 74% and 93%.
The matching figures for `CC1CCN(C(=O)CCC(=O)NC2CCC(Cc3ccc(Cl)cc3)(N(C)C)CC2)CC1` (stereo not shown) [Example 60, N-[4-(4-chloro-benzyl)-4-dimethylamino-cyclohexyl]-4-(4-methyl-piperidin-1-yl)-4-oxobutyramide]: 71% and 93%.
As for `Cc1ccc(CC2(N(C)C)CCC(NC(=O)CCC(=O)NC(C)C(=O)OC(C)(C)C)CC2)cc1` (stereo not shown) [Example 61, 2-{3-[4-dimethylamino-4-(4-methyl-benzyl)-cyclohexylcarbamoyl]-propionylamino}-propanoic acid-tert-butylester], the inhibition at 10 µM at NA-uptake came out at 93%; on 5HT-uptake it was 92%.
The matching figures for `CN(C)C1(Cc2ccc(Cl)cc2)CCC(NC(=O)CCC(=O)N2CC=CCC2)CC1` (stereo not shown) [Example 5, N-[4-(4-chloro-benzyl)-4-dimethylamino-cyclohexyl]-4-(3,6-dihydro-2H-pyridin-1-yl)-4-oxo-butyramide]: 80% and 93%.
On to `CN(C)C1(Cc2cccc(Cl)c2)CCC(NC(=O)CCC(=O)NC2CCOC2=O)CC1` (stereo not shown) [Example 2, N-[4-(3-chloro-benzyl)-4-dimethylamino-cyclohexyl]-N′-(2-oxo-tetrahydro-furan-3-yl)-succinamide], for which the inhibition at 10 µM at NA-uptake was 87%; on 5HT-uptake, 95%.
The matching figures for `COc1ccccc1N1CCN(C(=O)CCC(=O)NC2CCC(Cc3ccc(Cl)cc3)(N(C)C)CC2)CC1` (stereo not shown) [Example 47, N-[4-(4-chloro-benzyl)-4-dimethylamino-cyclohexyl]-4-[4-(2-methoxy-phenyl)-piperazin-1-yl]-4-oxo-butyramide]: 73% and 93%.
On to `Cc1ccc(CC2(N(C)C)CCC(NC(=O)CCC(=O)N3CCN(C(=O)c4cnc(C)cn4)CC3)CC2)cc1` (stereo not shown) [Example 10, N-[4-dimethylamino-4-(4-methyl-benzyl)-cyclohexyl]-4-[4-(5-methyl-pyrazin-2-carbonyl)-piperazin-1-yl]-4-oxo-butyramide], for which the inhibition at 10 µM on NA-uptake is 78%; on 5HT-uptake it was 92%.
On to `C=CCN(C)C(=O)CCC(=O)NC1CCC(Cc2ccc(Cl)cc2)(N(C)C)CC1` (stereo not shown) [Example 17, N-allyl-N′-[4-(4-chloro-benzyl)-4-dimethylamino-cyclohexyl]-N-methyl-succinamide], for which the values for the inhibition at 10 µM at NA-uptake and at 5HT-uptake were 82% and 93%, respectively.
The matching figures for `CN(C)C1(Cc2ccc(Cl)cc2)CCC(NC(=O)CCC(=O)NCCc2c[nH]c3ccccc23)CC1` (stereo not shown) [Example 52, N-[4-(4-chloro-benzyl)-4-dimethylamino-cyclohexyl]-N′-[2-(1H-indol-3-yl)-ethyl]-succinamide]: 88% and 96%.
With `CCOP(=O)(Cc1ccc(NC(=O)CCC(=O)NC2CCC(Cc3ccc(Cl)cc3)(N(C)C)CC2)cc1)OCC` (stereo not shown) [Example 93, (4-{3-[4-(4-chloro-benzyl)-4-dimethylamino-cyclohexylcarbamoyl]-propionylamino}-benzyl)-phosphonic acid diethylester], the inhibition at 10 µM worked out at 75% at NA-uptake and 92% on 5HT-uptake.
With `CCOc1ccc(N2CCN(C(=O)CCC(=O)NC3CCC(Cc4ccc(Cl)cc4)(N(C)C)CC3)CC2)cc1` (stereo not shown) [Example 16, N-[4-(4-chloro-benzyl)-4-dimethylamino-cyclohexyl]-4-[4-(4-ethoxy-phenyl)-piperazin-1-yl]-4-oxo-butyramide], the inhibition at 10 µM at NA-uptake is 86%; on 5HT-uptake, 97%.
The matching figures for `Cc1ccc(CC2(N(C)C)CCC(NC(=O)CCC(=O)N3CC=C(c4ccccc4)CC3)CC2)cc1` (stereo not shown) [Example 87, N-[4-dimethylamino-4-(4-methyl-benzyl)-cyclohexyl]-4-oxo-4-(4-phenyl-3,6-dihydro-2H-pyridin-1-yl)-butyramide]: 94% and 96%.
The matching figures for `COc1ccc(N2CCN(C(=O)CCC(=O)NC3CCC(Cc4ccc(C)cc4)(N(C)C)CC3)CC2)cc1` (stereo not shown) [Example 79, N-[4-dimethylamino-4-(4-methyl-benzyl)-cyclohexyl]-4-[4-(4-methoxy-phenyl)-piperazin-1-yl]-4-oxo-butyramide]: 95% and 96%.
Turning to `CCC(C)c1ccc(NC(=O)CCC(=O)NC2CCC(Cc3ccc(Cl)cc3)(N(C)C)CC2)cc1` (stereo not shown) [Example 140, N-(4-sec-butyl-phenyl)-N′-[4-(4-chloro-benzyl)-4-dimethylamino-cyclohexyl]-succinamide], the inhibition at 10 µM on NA-uptake was determined as 77%; on 5HT-uptake, 93%.
Consider `CN(Cc1cccnc1)C(=O)CCC(=O)NC1CCC(Cc2cccc(Cl)c2)(N(C)C)CC1` (stereo not shown) [Example 137, N-[4-(3-chloro-benzyl)-4-dimethylamino-cyclohexyl]-N′-methyl-N′-pyridin-3-ylmethyl-succinamide], for which the inhibition at 10 µM amounted to 83% at NA-uptake and 94% at 5HT-uptake.
Regarding `Cc1ccc(CC2(N(C)C)CCC(NC(=O)CCC(=O)NC3CCN(Cc4c(Cl)cccc4Cl)C3)CC2)cc1` (stereo not shown) [Example 1, N-[1-(2,6-dichloro-benzyl)-pyrrolidin-3-yl]-N′-[4-dimethylamino-4-(4-methyl-benzyl)-cyclohexyl]-succinamide], the values for the inhibition at 10 µM at NA-uptake and on 5HT-uptake were 71% and 93%, respectively.
Take `COc1cc(CN2CCN(C(=O)CCCC(=O)NC3CCC(Cc4ccccc4)(N(C)C)CC3)CC2)cc2c1OCO2` (stereo not shown) [Example 54]: the “NA-uptake [10 μM], % inhibition” value at NA-uptake stood at 90%. Besides, the “5HT-uptake [10 μM], % inhibition” value on 5HT-uptake amounted to 95%.
On to `Cc1cnc(C(=O)N2CCN(C(=O)CCC(=O)NC3CCC(Cc4cccc(Cl)c4)(N(C)C)CC3)CC2)cn1` (stereo not shown) [Example 33, N-[4-(3-chloro-benzyl)-4-dimethylamino-cyclohexyl]-4-[4-(5-methyl-pyrazin-2-carbonyl)-piperazin-1-yl]-4-oxo-butyramide], for which the figures for the inhibition at 10 µM on NA-uptake and at 5HT-uptake were 99% and 95%, respectively.
The matching figures for `Cc1cccc(CC2(N(C)C)CCC(NC(=O)CCC(=O)NC(C)c3ccc(F)cc3)CC2)c1` (stereo not shown) [Example 112, N-[4-dimethylamino-4-(3-methyl-benzyl)-cyclohexyl]-N′-[1-(4-fluoro-phenyl)-ethyl]-succinamide]: 101% and 96%.
Regarding `CCOC(=O)C(C)NC(=O)CCC(=O)NC1CCC(Cc2cccc(Cl)c2)(N(C)C)CC1` (stereo not shown) [Example 30, 2-{3-[4-(3-chloro-benzyl)-4-dimethylamino-cyclohexylcarbamoyl]-propionylamino}-propanoic acid ethylester], the values for the inhibition at 10 µM at NA-uptake and at 5HT-uptake were 96% and 93%, respectively.
Take `CN(C)C1(Cc2ccc(Cl)cc2)CCC(NC(=O)CCC(=O)NCc2cccc(Br)c2)CC1` (stereo not shown) [Example 165, N-(3-bromo-benzyl)-N′-[4-(4-chloro-benzyl)-4-dimethylamino-cyclohexyl]-succinamide]: the inhibition at 10 µM worked out at 94% at NA-uptake and 92% on 5HT-uptake.
On to `CCOC(=O)N1CCN(C(=O)CCC(=O)NC2CCC(Cc3cccc(Cl)c3)(N(C)C)CC2)CC1` (stereo not shown) [Example 84, 4-{3-[4-(3-chloro-benzyl)-4-dimethylamino-cyclohexylcarbamoyl]-propionyl}-piperazin-1-carboxylic acid ethylester], for which the inhibition at 10 µM at NA-uptake is 96%; at 5HT-uptake it was 95%.
Take `C=CCN(C)C(=O)CCC(=O)NC1CCC(Cc2cccc(Cl)c2)(N(C)C)CC1` (stereo not shown) [Example 43, N-allyl-N′-[4-(3-chloro-benzyl)-4-dimethylamino-cyclohexyl]-N-methyl-succinamide]: the results for the inhibition at 10 µM at NA-uptake and at 5HT-uptake were 96% and 98%, respectively.
Turning to `CN(C)C1(Cc2ccc(Cl)cc2)CCC(NC(=O)CCC(=O)NCc2cccc3ccccc23)CC1` (stereo not shown) [Example 34, N-[4-(4-chloro-benzyl)-4-dimethylamino-cyclohexyl]-N′-naphthalen-1-ylmethyl-succinamide], the inhibition at 10 µM at NA-uptake was determined as 87%; at 5HT-uptake it was 97%.
The matching figures for `Cc1ccc(CC2(N(C)C)CCC(NC(=O)CCC(=O)N3CCN(c4ccc(Cl)cc4)CC3)CC2)cc1` (stereo not shown) [Example 96, 4-[4-(4-chloro-phenyl)-piperazin-1-yl]-N-[4-dimethylamino-4-(4-methyl-benzyl)-cyclohexyl]-4-oxo-butyramide]: 87% and 94%.
The matching figures for `CN(C)C1(Cc2cccc(Cl)c2)CCC(NC(=O)CCC(=O)NCCc2ccccn2)CC1` (stereo not shown) [Example 12, N-[4-(3-chloro-benzyl)-4-dimethylamino-cyclohexyl]-N′-(2-pyridin-2-yl-ethyl)-succinamide]: 95% and 92%.
Consider `Cc1cccc(CC2(N(C)C)CCC(NC(=O)CCC(=O)N3CCN(Cc4c(Cl)cccc4Cl)CC3)CC2)c1` (stereo not shown) [Example 23, 4-[4-(2,6-dichloro-benzyl)-piperazin-1-yl]-N-[4-dimethylamino-4-(3-methyl-benzyl)-cyclohexyl]-4-oxo-butyramide], for which the inhibition at 10 µM at NA-uptake and on 5HT-uptake was 92% throughout.
